Results on 2 molecules are retold here after ChEMBL document CHEMBL5316353, “Antitarget, Anti-SARS-CoV-2 Leads, Drugs, and the Drug Discovery-Genetics Alliance Perspective” (J Med Chem, 2023).

pIC50: −log10 of the molar value.

The nature of series [1]: Cytotoxicity in African green monkey Vero cells by MTT assay. The class given is toxicity, cell-based. To be noted: chlorocebus sabaeus.
The subject of another series is SARS-CoV. Description: Antiviral activity against SARS-CoV-1 infected in HAE cells assessed as inhibition of viral replication. The class given is functional, organism-based. The conditions noted are these: Severe acute respiratory syndrome-related coronavirus.
In another series the test system is SARS-CoV-2. Description: Antiviral activity against SARS Cov-2 pseudovirions assessed as inhibition of viral entry into 293/hACE2 cells at 2 uM relative to control. On the set-up: scale not given: the % may be the effect or the level left. The class given is functional, Severe acute respiratory syndrome coronavirus 2, 293T/ACE2.

As usually defined, the CC50 is the concentration at which the toxic effect on the cells reaches its halfway point. By pIC50 is commonly meant the IC50 on a negative log10 scale, so that one unit is a factor of ten.

On to `CCC(CC)COC(=O)[C@H](C)NP(=O)(OC[C@@H]1O[C@](C#N)(c2ccc3c(N)ncnn23)[C@@H](O)[C@H]1O)Oc1ccccc1` (stereo partly drawn), for which the CC50 in series [1] is more than 100000 nM. In the series with SARS-CoV, the pIC50 is 7.16. On to `CCc1ccccc1NC(=O)CSC(=O)NNC(=O)[C@H](Cc1c[nH]c2ccccc12)NC(=O)OC(C)(C)C`, for which the Activity with SARS-CoV-2 was approximately 76%.
